Legend:
[1] = system: A375; test: In vitro cell experiment (MTT), A375; format: cell-based; conditions: A-375, 72 h, human melanoma cells (KDR expressing)
Method: (§1) Cells in logarithmic growth phase were seeded at a certain density in a 96-well plate (200 μL/well). The cells were allowed to grow for 24 h and subsequently treated with different concentrations of drugs (including a blank group and a control group) and incubated for 72 h at 37° C. Each concentration in a given experiment was tested in triplicate. After 72 h of exposure, 20 μL of the MTT labeling reagent was added to the medium (the final concentration of MTT was 0.5 mg/mL), and the cells were incubated for additional 4 h at 37° C. Following this process, 180 μL of the medium was removed and 130 μL of DMSO was added to each well, or the medium was completely removed and 150 μL of DMSO was added to each well. Then the plate was shaken and mixed in a micro-oscillator. Finally the optical density (OD) of each sample was measured in a micro-plate reader at 550 nm. Cell inhibition rate was calculated according to the following formula: […]
(§2) According to cell inhibition rates, IC50 was calculated by LOGIT method. The experiments were repeated twice and the data was expressed as means±SD.

[2] = system: HUVEC; test: In vitro cell experiment (MTT), HUVEC; format: cell-based; conditions: 72 h, human umbilical vein endothelial cell (KDR overexpressing)
Method: as §1, §2

[3] = system: HCC827; test: In vitro cell experiment (MTT), HCC827; format: cell-based; conditions: 72 h, human non-small cell lung carcinoma (EGFR1 19 exon mutation)
Method: as §1, §2

[4] = system: Eca109; test: In vitro cell experiment (MTT), Eca109; format: cell-based; conditions: ECa-109, 72 h, human esophageal carcinoma cells
Method: as §1, §2

[5] = system: HCT116; test: In vitro cell experiment (MTT), HCT116; format: cell-based; conditions: HCT-116, 72 h, human colon carcinoma cells
Method: as §1, §2

[6] = system: H292; test: In vitro cell experiment (MTT), H292; format: cell-based; conditions: NCI-H292, 72 h, human lung carcinoma cells (EGFR1 overexpressing)
Method: as §1, §2

[7] = Mouse maximum tolerated dose (MTD) experiment; conditions: in vivo, mice, oral, administered 7 days then observed 7 days
Method: In the mouse MTD experiment, the mice were administrated with the present compounds.
Healthy mice, having a small difference in body's weights, were chosen. The chosen mice were placed in different layers of cages according to their body's weights. In each layer, the mice were randomly divided into groups. In each group, there were three mice.
The administration dosages were 1000, 500, 250, 125, 62.5 and 31.25 mg/kg respectively and each two dosages differed by a factor of 2. For each of administration dosages, three mice were allotted. The mice were administrated with the present compounds for 7 days and then observed for the next 7 days without the present compounds.
The present compounds were orally administrated with the mice according to the administration dosage and the body weight.

[8] = system: SK-OV-3; test: In vitro cell experiment (MTT), SK-OV-3; format: cell-based; conditions: 72 h, human ovarian carcinoma cells (EGFR2 overexpressing)
Method: as §1, §2

[9] = system: A498; test: In vitro cell experiment (MTT), A498; format: cell-based; conditions: 72 h, human renal carcinoma cells
Method: as §1, §2

[10] = system: Bel-7402; test: In vitro cell experiment (MTT), Bel-7402; format: cell-based; conditions: 72 h, human hepatoma carcinoma cells
Method: as §1, §2

[11] = system: A549; test: In vitro cell experiment (MTT), A549; format: cell-based; conditions: 72 h, human non-small-cell lung carcinoma cells (EGFR1 wildtype)
Method: as §1, §2

[12] = system: CFPAC-1; test: In vitro cell experiment (MTT), CFPAC-1; format: cell-based; conditions: 72 h, human pancreatic carcinoma cells
Method: as §1, §2

[13] = system: 3T3swiss; test: In vitro cell experiment (MTT), 3T3swiss; format: cell-based; conditions: Fibroblast, 72 h, mouse fibroblasts (PDGFR overexpressing)
Method: as §1, §2

[14] = target: AXL (Homo sapiens, UniProt P30530); test: In vitro enzyme experiment (ELISA), AXL; format: biochemical; conditions: Poly (Glu, Tyr)4:1 substrate, 5 μM ATP
Method: (§3) AXL: Anaplastic lymphoma kinase Methods: ELISA: The enzyme plate was coated by enzyme reaction substrate (Poly (Glu, Tyr)4:1) at a density of 20 μg/ml. Then the enzyme, the sample and 5 μM ATP were mixed in the well to react. After the reaction, the substrate phosphorylation was detected by anti-phosphotyrosine monoclonal antibody (4G10). In the next step, the goat-anti-mouse IgG linking with horse radish peroxidase (HRP) and tetramethylbenzidine (TMB) were added sequentially in the well to evaluate the level of substrate phosphorylation by the degree of color depth. In the experiment, a blank group without tyrosine kinase and a control group with the corresponding concentration of DMSO were established. Finally, 50 μL/well of H2SO4 at a concentration of 0.18M was added in each well to stop the reaction. The optical density (OD) of each sample was measured in a micro-plate reader at 450 nm. The relative inhibition rate of the compound against tyrosine kinase protein was determined. According to the inhibition rates at different concentrations, IC50 was calculated by LOGIT method. The experiments were repeated three times, and the average of three IC50 values was the final index to evaluate the ability of inhibition.

[15] = target: BTK (Homo sapiens, UniProt Q06187); test: In vitro enzyme experiment (ELISA), BTK; format: biochemical; conditions: Poly (Glu, Tyr)4:1 substrate, 5 μM ATP
BTK, sequence (Q06187 whole entry, species assumed): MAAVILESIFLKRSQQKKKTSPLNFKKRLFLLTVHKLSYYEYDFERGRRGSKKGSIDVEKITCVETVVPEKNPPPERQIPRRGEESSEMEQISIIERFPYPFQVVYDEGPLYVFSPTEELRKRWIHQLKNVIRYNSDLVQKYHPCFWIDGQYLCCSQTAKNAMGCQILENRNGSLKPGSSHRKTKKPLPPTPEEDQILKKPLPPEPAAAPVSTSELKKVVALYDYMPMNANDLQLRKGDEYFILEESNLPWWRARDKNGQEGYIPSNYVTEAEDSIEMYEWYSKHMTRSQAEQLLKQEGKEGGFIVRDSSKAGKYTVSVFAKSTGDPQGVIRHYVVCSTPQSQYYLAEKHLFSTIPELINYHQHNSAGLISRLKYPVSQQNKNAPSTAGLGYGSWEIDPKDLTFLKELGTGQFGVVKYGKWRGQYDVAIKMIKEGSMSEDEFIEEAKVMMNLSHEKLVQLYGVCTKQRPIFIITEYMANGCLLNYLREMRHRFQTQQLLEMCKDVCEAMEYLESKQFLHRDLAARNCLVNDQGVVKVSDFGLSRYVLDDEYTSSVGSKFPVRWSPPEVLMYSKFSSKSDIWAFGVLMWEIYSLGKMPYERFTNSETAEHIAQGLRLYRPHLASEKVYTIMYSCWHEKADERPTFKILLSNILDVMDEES
Method: BTK: Bruton tyrosine kinase
as §3, with “ELISA:” for “AXL: Anaplastic lymphoma kinase Methods: ELISA:”, “nm.” for “nm. The relative inhibition rate of the compound against tyrosine kinase protein was determined. According to the inhibition rates at different concentrations, IC50 was calculated by LOGIT method. The experiments were repeated three times, and the average of three IC50 values was the final index to evaluate the ability of inhibition.”
(§4) The relative inhibition rate of the compound against tyrosine kinase protein was determined.
(§5) According to the inhibition rates at different concentrations, IC50 was calculated by LOGIT method. The experiments were repeated three times, and the average of three IC50 values was the final index to evaluate the ability of inhibition.

[16] = system: HT-29; test: In vitro cell experiment (MTT), HT-29; format: cell-based; conditions: 72 h, human colon carcinoma cells (expressing both c-KIT and PDGFR)
Method: as §1, §2

[17] = target: FGFR-1 (Homo sapiens, UniProt P11362); test: In vitro enzyme experiment (ELISA), FGFR-1; format: biochemical; conditions: Poly (Glu, Tyr)4:1 substrate, 5 μM ATP
FGFR-1, sequence (P11362 22-822, species assumed): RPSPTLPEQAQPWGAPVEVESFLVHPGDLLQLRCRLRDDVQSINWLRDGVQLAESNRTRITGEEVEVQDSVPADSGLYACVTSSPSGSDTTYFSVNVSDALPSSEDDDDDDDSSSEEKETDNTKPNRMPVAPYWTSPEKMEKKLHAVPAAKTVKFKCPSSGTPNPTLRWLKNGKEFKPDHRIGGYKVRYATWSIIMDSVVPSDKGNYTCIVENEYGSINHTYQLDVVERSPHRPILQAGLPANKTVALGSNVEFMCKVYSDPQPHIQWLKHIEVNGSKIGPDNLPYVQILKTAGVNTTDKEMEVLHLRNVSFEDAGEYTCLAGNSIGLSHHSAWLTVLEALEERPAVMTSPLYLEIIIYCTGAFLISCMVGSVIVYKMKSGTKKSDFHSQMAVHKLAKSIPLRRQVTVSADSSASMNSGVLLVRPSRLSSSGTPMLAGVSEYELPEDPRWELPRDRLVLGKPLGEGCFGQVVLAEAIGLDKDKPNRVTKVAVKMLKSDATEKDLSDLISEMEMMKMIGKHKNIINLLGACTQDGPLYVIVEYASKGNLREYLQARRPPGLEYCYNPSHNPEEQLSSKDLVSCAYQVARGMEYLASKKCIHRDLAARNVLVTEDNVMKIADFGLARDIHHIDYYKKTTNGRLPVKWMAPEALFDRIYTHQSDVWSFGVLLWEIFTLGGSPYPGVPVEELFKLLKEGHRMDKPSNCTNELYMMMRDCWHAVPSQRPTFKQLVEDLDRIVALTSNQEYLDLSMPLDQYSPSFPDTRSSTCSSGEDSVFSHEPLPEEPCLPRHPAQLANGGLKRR
Method: FGFR-1: Fibroblast growth factor receptor 1
as §3, with “ELISA:” for “AXL: Anaplastic lymphoma kinase Methods: ELISA:”, “nm.” for “nm. The relative inhibition rate of the compound against tyrosine kinase protein was determined. According to the inhibition rates at different concentrations, IC50 was calculated by LOGIT method. The experiments were repeated three times, and the average of three IC50 values was the final index to evaluate the ability of inhibition.”
as §4, §5

[18] = system: SGC7901; test: In vitro cell experiment (MTT), SGC7901; format: cell-based; conditions: SGC-7901, 72 h, human gastric carcinoma cells
Method: as §1, §2

[19] = target: KDR (Homo sapiens, UniProt P35968); test: In vitro enzyme experiment (ELISA), KDR; format: biochemical; conditions: Poly (Glu, Tyr)4:1 substrate, 5 μM ATP
Method: KDR: Human vascular endothelial growth factor receptor 2
as §3, with “ELISA:” for “AXL: Anaplastic lymphoma kinase Methods: ELISA:”, “nm.” for “nm. The relative inhibition rate of the compound against tyrosine kinase protein was determined. According to the inhibition rates at different concentrations, IC50 was calculated by LOGIT method. The experiments were repeated three times, and the average of three IC50 values was the final index to evaluate the ability of inhibition.”
as §4, §5

[20] = target: RET (Homo sapiens, UniProt P07949); test: In vitro enzyme experiment (ELISA), RET; format: biochemical; conditions: Poly (Glu, Tyr)4:1 substrate, 5 μM ATP
RET, sequence (P07949 29-1114, species assumed): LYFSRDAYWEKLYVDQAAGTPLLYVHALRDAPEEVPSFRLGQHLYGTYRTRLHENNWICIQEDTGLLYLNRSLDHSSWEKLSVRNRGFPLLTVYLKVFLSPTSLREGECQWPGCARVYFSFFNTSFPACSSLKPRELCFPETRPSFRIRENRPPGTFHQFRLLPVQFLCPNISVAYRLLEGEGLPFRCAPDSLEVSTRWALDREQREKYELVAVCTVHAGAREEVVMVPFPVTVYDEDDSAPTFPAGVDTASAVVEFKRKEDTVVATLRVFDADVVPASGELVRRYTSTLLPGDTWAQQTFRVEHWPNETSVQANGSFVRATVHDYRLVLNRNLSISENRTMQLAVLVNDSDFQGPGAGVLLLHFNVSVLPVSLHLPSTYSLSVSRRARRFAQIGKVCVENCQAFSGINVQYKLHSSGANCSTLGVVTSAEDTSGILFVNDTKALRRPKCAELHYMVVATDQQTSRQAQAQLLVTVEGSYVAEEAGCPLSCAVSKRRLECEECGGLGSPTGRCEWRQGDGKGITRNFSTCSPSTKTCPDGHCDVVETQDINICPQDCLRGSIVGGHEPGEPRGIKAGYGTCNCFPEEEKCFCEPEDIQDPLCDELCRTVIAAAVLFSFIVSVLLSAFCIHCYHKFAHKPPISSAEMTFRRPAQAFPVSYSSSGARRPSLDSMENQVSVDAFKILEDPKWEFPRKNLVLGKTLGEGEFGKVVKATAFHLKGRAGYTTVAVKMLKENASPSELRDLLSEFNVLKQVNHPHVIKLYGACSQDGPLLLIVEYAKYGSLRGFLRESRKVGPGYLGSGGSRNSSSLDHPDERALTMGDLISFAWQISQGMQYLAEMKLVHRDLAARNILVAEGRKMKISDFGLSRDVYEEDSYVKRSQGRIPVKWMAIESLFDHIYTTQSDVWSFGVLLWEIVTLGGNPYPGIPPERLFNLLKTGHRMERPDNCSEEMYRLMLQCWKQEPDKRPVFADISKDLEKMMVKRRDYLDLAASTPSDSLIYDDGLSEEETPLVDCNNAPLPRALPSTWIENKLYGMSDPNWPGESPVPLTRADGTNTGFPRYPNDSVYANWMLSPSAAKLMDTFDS
Method: RET: A receptor involved in thyroid cancer
as §3, with “ELISA:” for “AXL: Anaplastic lymphoma kinase Methods: ELISA:”, “nm.” for “nm. The relative inhibition rate of the compound against tyrosine kinase protein was determined. According to the inhibition rates at different concentrations, IC50 was calculated by LOGIT method. The experiments were repeated three times, and the average of three IC50 values was the final index to evaluate the ability of inhibition.”
as §4, §5

[21] = target: PDGFRβ (Homo sapiens, UniProt P09619); test: In vitro enzyme experiment (ELISA), PDGFRβ; format: biochemical; conditions: Poly (Glu, Tyr)4:1 substrate, 5 μM ATP
PDGFRβ, sequence (P09619 33-1106, species assumed): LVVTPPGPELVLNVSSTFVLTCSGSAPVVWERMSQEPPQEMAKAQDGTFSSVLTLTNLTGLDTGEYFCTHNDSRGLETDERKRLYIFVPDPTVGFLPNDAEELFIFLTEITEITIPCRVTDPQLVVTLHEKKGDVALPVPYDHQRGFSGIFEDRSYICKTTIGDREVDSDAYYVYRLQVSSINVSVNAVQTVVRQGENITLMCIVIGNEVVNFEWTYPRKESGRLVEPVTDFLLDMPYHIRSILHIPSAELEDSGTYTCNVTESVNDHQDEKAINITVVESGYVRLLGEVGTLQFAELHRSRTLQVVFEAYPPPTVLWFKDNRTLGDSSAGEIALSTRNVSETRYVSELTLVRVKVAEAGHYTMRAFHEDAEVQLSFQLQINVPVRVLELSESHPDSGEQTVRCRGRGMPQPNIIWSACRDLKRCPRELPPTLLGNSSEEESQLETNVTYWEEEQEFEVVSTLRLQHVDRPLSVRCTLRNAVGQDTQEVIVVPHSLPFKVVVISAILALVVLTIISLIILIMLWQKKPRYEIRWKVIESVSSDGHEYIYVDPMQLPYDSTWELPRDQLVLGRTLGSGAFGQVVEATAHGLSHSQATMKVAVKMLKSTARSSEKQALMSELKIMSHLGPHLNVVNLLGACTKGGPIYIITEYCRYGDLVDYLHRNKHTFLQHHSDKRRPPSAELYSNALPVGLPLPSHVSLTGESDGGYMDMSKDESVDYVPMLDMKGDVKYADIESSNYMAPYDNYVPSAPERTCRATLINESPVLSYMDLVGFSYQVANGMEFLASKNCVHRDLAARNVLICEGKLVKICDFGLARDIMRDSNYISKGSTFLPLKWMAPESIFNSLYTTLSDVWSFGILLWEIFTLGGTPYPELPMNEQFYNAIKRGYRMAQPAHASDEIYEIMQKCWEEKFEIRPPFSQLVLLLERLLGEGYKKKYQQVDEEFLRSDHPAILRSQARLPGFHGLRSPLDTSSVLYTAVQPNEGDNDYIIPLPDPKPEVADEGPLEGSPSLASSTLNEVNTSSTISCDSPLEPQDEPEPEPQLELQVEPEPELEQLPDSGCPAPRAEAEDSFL
Method: PDGFRβ: Platelet-derived growth factor receptor β
as §3, with “ELISA:” for “AXL: Anaplastic lymphoma kinase Methods: ELISA:”, “nm.” for “nm. The relative inhibition rate of the compound against tyrosine kinase protein was determined. According to the inhibition rates at different concentrations, IC50 was calculated by LOGIT method. The experiments were repeated three times, and the average of three IC50 values was the final index to evaluate the ability of inhibition.”
as §4, §5

[22] = system: A431; test: In vitro cell experiment (MTT), A431; format: cell-based; conditions: A-431, 72 h, human epidermoid carcinoma (EGFR1 overexpressing)
Method: as §1, §2

[23] = target: FLT-1 (Homo sapiens, UniProt P17948); test: In vitro enzyme experiment (ELISA), FLT-1; format: biochemical; conditions: Poly (Glu, Tyr)4:1 substrate, 5 μM ATP
FLT-1, sequence (P17948 27-1338): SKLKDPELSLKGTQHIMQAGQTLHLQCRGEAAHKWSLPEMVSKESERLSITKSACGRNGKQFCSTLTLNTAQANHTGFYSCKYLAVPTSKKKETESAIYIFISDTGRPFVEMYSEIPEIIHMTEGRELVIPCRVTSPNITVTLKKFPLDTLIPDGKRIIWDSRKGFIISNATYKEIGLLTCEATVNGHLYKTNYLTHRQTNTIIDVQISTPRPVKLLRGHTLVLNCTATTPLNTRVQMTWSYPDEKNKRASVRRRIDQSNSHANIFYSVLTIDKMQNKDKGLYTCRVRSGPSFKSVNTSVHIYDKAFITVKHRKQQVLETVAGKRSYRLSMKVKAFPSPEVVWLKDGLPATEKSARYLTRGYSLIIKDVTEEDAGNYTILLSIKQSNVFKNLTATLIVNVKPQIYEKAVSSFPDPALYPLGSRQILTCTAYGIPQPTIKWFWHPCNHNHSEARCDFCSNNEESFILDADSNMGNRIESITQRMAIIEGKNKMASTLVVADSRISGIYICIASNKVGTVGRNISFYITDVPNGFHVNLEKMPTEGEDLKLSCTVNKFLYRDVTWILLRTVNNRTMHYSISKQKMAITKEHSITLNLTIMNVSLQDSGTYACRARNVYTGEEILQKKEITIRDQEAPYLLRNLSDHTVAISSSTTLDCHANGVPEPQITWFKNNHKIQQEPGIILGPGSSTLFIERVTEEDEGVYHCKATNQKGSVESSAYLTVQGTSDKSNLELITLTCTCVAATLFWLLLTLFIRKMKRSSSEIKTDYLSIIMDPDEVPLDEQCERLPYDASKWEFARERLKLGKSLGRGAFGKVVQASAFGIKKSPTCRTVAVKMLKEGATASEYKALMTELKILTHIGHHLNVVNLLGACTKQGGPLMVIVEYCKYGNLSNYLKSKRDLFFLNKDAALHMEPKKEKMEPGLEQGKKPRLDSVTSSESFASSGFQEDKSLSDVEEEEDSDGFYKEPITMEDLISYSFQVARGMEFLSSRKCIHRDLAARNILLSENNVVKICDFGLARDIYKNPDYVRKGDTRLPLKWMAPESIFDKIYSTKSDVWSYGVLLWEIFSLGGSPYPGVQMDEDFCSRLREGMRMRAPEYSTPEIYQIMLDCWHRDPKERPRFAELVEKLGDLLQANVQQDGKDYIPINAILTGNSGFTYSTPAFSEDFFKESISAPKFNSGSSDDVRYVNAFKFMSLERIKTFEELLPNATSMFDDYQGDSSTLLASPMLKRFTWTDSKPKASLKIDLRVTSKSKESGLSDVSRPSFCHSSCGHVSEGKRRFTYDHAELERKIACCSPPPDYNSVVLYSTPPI
Method: FLT-1: Human vascular endothelial growth factor receptor 1
as §3, with “ELISA:” for “AXL: Anaplastic lymphoma kinase Methods: ELISA:”, “nm.” for “nm. The relative inhibition rate of the compound against tyrosine kinase protein was determined. According to the inhibition rates at different concentrations, IC50 was calculated by LOGIT method. The experiments were repeated three times, and the average of three IC50 values was the final index to evaluate the ability of inhibition.”
as §4, §5

[24] = system: PC-9; test: In vitro cell experiment (MTT), PC-9; format: cell-based; conditions: 72 h, human non-small-cell lung carcinoma cells (EGFR1 19 exon mutation)
Method: as §1, §2

[25] = system: TT; test: In vitro cell experiment (MTT), TT; format: cell-based; conditions: 72 h, human thyroid carcinoma cells (RET C634W mutation)
Method: as §1, §2

[26] = target: EGFR (Homo sapiens, UniProt P00533); test: In vitro enzyme experiment (ELISA), EGFR; format: biochemical; conditions: Poly (Glu, Tyr)4:1 substrate, 5 μM ATP
Method: EGFR: Human epidermal growth factor receptor 1
as §3, with “ELISA:” for “AXL: Anaplastic lymphoma kinase Methods: ELISA:”, “nm.” for “nm. The relative inhibition rate of the compound against tyrosine kinase protein was determined. According to the inhibition rates at different concentrations, IC50 was calculated by LOGIT method. The experiments were repeated three times, and the average of three IC50 values was the final index to evaluate the ability of inhibition.”
as §4, §5

SMILES | IC50 [1] [nM] | IC50 [2] [nM] | IC50 [3] [nM] | IC50 [4] [nM] | IC50 [5] [nM] | IC50 [6] [nM] | IC50 [8] [nM] | IC50 [9] [nM] | IC50 [10] [nM] | IC50 [11] [nM] | IC50 [12] [nM] | IC50 [13] [nM] | IC50 [14] [nM] | IC50 [15] [nM] | IC50 [16] [nM] | IC50 [17] [nM] | IC50 [18] [nM] | IC50 [22] [nM] | IC50 [24] [nM] | IC50 [25] [nM] | further results
COc1cc2c(Nc3ccc(Br)cc3F)ncnc2cc1OCCN1CCCC1 [Compound 2, 4-(4-bromo-2-fluoroanilino)-6-methoxy-7-((2-pyrrolidine-1-yl)ethoxy)quinazoline] | 185 | 40.4 | 5.6 | 5800 | 1080 | 46.3 | – | – | – | – | – | – | – | – | – | – | – | – | – | – | –
COc1cc2c(Nc3ccc(Br)cc3F)ncnc2cc1OCCCn1ccnc1 [Compound 14, 4-(4-bromo-2-fluoroanilino)-6-methoxy-7-(3-(1H-imidazol-1-yl)propoxy)quinazoline] | 161 | – | 8.9 | – | 913 | 37.4 | 2880 | 2730 | 5940 | – | – | – | – | – | – | – | – | – | – | – | MTD [7]: 62.5 to 125 mg/kg
COc1cc2c(Nc3ccc(Cl)cc3F)ncnc2cc1OCCCN1CCCC1 [Compound 44, 4-(2-fluoro-4-chloroanilino)-6-methoxy-7-(3-(pyrrolidin-1-yl)-propoxy)quinazoline, reference compound] | 315 | 198 | – | 6980 | 988 | 124 | 4030 | 3050 | 9680 | 4900 | 6720 | 2900 | 2990 | 424 | 3460 | 39.8 | 5250 | 3570 | 16.8 | 257 | IC50 [19]: 40.5 nM; IC50 [20]: 23.4 nM; IC50 [21]: 306 nM; IC50 [23]: 51.2 nM
COc1cc2c(Nc3ccc(Br)cc3F)ncnc2cc1OCCCN1CCCCC1 [Compound 45, 4-(2-fluoro-4-bromoanilino)-6-methoxy-7-(3-(piperidin-1-yl)-propoxy)quinazoline, reference compound] | 290 | 187 | 9.7 | 7020 | 1060 | 105 | 4990 | 3150 | 6260 | 5020 | 6720 | 3790 | 2990 | 414 | 3410 | 41.6 | 6260 | 4150 | 18.7 | 314 | IC50 [26]: 159 nM; IC50 [19]: 38.6 nM; IC50 [20]: 27.5 nM; IC50 [21]: 328 nM; IC50 [23]: 50.1 nM
COc1cc2c(Nc3ccc(Br)cc3F)ncnc2cc1OCC1CCN(C)CC1 [Vandetanib, reference compound] | – | – | 19.3 | 6860 | 1210 | 167 | 3510 | 2960 | 6850 | 4450 | 6260 | 2530 | – | – | 3230 | – | 6850 | 3230 | 14.9 | 192 | –

Source: patent publication US10421754B2, “Quinazoline derivative” (CSPC ZHONGQI PHARMACEUTICAL TECHNOLOGY (SHIJIAZHUANG) CO., …, priority 2014, dated 2019)
